# Experimental data taken from patent publication US20220242870A1, “HETEROCYCLE-FUSED PYRIMIDINE DERIVATIVE AND USE THEREOF” (VORONOI Inc., priority 2019, published 2022).
# How the values were obtained:
# human FLT3-ITD enzyme = molecular target: T1, human FLT3-ITD enzyme (Homo sapiens, UniProt P36888); assay: FLT3 enzyme inhibitory ability (ADP-Glo kinase assay); type: biochemical; details: human FLT3-ITD enzyme 10 ng, ATP 10 μM, 25° C. 1 hour
# T1 sequence (P36888 1-993): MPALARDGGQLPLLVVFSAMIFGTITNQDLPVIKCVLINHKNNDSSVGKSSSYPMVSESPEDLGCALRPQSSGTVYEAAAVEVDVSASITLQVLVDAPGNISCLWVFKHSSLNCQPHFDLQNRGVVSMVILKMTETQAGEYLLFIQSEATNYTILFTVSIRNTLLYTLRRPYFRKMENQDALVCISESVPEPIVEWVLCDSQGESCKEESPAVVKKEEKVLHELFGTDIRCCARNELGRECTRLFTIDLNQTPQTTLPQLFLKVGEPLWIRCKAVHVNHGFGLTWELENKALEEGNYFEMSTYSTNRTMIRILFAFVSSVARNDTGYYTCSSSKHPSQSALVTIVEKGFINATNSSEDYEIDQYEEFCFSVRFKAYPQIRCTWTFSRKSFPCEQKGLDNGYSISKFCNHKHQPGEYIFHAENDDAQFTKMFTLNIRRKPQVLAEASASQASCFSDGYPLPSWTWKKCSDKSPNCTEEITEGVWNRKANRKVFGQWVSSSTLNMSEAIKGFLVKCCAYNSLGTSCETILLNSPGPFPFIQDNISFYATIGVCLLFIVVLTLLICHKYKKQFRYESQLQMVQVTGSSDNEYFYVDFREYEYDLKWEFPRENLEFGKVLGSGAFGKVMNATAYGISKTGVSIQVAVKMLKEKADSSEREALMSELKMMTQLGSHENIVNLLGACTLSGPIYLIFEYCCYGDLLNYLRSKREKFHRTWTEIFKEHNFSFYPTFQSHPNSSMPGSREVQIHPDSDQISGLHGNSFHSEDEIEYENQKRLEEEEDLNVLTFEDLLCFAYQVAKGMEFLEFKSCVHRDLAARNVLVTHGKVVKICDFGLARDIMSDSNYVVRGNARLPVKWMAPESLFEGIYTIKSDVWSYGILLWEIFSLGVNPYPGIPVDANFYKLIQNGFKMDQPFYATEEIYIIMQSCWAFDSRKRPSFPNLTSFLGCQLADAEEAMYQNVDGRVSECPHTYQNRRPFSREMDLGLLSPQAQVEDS
# Outline: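 Purified human FLT3-ITD (10 ng) with 10 μM ATP and specific substrate in 40 mM Tris-HCl pH 7.4, 20 mM MgCl2, 0.5 mg/mL BSA, 50 μM DTT, 1 h at 25 °C. ADP formation read by ADP-Glo luminescence; IC50 (nM) versus solvent-treated control.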
# CLK1 = molecular target: T2, CLK1 (Homo sapiens, UniProt P49759); assay: scanMAX kinase assay panel; type: binding; details: read-out: control percentage (% control)
# T2 construct: purchased DiscoverX (scanMAX panel, contract assay)
# T2 sequence (P49759 whole entry): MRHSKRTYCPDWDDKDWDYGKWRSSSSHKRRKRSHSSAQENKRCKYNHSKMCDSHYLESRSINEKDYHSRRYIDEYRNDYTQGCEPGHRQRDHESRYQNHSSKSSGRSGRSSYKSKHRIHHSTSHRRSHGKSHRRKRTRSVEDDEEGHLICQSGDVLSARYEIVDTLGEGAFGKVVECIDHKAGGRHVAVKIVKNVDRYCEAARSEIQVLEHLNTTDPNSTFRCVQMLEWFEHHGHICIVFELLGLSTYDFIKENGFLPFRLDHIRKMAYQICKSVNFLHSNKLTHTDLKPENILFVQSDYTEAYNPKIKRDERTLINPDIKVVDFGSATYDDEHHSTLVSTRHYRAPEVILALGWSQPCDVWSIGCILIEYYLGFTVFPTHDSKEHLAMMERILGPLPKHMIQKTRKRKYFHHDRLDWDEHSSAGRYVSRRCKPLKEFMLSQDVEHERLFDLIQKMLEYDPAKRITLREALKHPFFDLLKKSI
# Outline: (§1)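 Compound was applied as a 1 μM solution in DMSO across the scanMAX kinase panel. Activity is reported as % control, scaled between a positive control (0%) and the DMSO negative control (100%).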
# CLK2 = molecular target: T3, CLK2 (Homo sapiens, UniProt P49760); assay: scanMAX kinase assay panel; type: binding; details: read-out: control percentage (% control)
# T3 construct: purchased DiscoverX (scanMAX panel, contract assay)
# T3 sequence (P49760 whole entry): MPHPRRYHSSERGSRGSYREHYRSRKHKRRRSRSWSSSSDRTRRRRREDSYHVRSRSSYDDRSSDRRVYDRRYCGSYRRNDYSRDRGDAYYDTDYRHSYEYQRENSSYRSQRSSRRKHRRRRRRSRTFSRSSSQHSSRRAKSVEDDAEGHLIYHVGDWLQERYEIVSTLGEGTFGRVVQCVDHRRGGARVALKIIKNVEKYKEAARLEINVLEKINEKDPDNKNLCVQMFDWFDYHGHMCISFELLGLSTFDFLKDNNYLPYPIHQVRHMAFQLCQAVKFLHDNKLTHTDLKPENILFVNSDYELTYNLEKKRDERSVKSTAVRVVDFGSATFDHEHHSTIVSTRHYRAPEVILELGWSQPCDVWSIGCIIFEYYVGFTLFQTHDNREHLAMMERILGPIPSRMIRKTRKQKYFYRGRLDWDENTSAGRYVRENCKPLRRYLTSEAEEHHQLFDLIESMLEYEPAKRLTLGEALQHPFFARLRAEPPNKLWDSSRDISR
# Outline: as §1
# DMPK = molecular target: T4, DMPK (Homo sapiens, UniProt Q09013); assay: scanMAX kinase assay panel; type: binding; details: read-out: control percentage (% control)
# T4 construct: purchased DiscoverX scanMAX kinase assay panel
# T4 sequence (Q09013 whole entry): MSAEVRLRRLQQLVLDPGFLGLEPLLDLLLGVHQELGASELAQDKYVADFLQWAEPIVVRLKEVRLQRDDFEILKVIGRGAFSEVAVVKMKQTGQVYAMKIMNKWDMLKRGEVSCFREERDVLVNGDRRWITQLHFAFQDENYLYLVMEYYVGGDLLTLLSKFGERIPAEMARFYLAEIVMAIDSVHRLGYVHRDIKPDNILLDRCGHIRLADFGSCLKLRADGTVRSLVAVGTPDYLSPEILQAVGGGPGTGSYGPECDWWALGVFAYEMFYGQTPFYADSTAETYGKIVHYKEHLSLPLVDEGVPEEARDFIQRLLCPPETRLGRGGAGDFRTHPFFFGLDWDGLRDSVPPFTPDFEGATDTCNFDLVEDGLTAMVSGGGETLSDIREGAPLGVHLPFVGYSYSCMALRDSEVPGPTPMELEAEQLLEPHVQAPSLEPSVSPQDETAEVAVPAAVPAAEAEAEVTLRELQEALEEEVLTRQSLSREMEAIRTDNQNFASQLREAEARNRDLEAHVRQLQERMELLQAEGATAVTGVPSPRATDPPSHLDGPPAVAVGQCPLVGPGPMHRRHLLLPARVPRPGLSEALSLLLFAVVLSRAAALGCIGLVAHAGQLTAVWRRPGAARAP
# Outline: as §1
# FES = molecular target: T5, FES (Homo sapiens, UniProt P07332); assay: scanMAX kinase assay panel; type: binding; details: read-out: control percentage (% control)
# T5 construct: purchased DiscoverX scanMAX kinase assay panel
# T5 sequence (P07332 whole entry): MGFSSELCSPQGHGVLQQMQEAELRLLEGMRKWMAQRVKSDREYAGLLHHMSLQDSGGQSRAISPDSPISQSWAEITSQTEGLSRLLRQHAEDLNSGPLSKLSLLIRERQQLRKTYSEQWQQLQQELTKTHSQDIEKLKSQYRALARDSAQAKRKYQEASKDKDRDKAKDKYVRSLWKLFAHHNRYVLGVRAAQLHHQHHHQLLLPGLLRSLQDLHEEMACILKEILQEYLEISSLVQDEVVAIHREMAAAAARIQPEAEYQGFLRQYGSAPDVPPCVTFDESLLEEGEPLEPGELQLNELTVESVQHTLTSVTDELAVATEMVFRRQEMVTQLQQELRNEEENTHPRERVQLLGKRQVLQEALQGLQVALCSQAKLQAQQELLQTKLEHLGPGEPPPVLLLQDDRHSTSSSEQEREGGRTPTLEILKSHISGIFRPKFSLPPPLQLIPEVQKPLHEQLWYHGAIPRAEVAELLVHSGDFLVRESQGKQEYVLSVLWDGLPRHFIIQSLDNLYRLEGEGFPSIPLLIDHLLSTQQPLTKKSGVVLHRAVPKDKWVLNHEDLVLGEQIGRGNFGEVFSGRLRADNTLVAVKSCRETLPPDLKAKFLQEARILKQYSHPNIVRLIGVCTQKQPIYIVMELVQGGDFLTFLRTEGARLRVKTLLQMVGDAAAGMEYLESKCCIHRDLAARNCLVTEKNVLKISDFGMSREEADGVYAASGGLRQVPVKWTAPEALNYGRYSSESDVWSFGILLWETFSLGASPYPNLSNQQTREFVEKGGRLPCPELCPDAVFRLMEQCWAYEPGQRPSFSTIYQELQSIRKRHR
# Outline: as §1
# LRRK2(G2019S) = molecular target: T6, LRRK2(G2019S) (Homo sapiens, UniProt Q5S007, G2019S); assay: scanMAX kinase assay panel; type: binding; details: read-out: control percentage (% control)
# T6 construct: purchased DiscoverX scanMAX kinase assay panel
# Outline: as §1
# MET = molecular target: T7, MET (Homo sapiens, UniProt P08581); assay: scanMAX kinase assay panel; type: binding; details: read-out: control percentage (% control)
# T7 construct: purchased DiscoverX scanMAX kinase assay panel
# T7 sequence (P08581 25-1390): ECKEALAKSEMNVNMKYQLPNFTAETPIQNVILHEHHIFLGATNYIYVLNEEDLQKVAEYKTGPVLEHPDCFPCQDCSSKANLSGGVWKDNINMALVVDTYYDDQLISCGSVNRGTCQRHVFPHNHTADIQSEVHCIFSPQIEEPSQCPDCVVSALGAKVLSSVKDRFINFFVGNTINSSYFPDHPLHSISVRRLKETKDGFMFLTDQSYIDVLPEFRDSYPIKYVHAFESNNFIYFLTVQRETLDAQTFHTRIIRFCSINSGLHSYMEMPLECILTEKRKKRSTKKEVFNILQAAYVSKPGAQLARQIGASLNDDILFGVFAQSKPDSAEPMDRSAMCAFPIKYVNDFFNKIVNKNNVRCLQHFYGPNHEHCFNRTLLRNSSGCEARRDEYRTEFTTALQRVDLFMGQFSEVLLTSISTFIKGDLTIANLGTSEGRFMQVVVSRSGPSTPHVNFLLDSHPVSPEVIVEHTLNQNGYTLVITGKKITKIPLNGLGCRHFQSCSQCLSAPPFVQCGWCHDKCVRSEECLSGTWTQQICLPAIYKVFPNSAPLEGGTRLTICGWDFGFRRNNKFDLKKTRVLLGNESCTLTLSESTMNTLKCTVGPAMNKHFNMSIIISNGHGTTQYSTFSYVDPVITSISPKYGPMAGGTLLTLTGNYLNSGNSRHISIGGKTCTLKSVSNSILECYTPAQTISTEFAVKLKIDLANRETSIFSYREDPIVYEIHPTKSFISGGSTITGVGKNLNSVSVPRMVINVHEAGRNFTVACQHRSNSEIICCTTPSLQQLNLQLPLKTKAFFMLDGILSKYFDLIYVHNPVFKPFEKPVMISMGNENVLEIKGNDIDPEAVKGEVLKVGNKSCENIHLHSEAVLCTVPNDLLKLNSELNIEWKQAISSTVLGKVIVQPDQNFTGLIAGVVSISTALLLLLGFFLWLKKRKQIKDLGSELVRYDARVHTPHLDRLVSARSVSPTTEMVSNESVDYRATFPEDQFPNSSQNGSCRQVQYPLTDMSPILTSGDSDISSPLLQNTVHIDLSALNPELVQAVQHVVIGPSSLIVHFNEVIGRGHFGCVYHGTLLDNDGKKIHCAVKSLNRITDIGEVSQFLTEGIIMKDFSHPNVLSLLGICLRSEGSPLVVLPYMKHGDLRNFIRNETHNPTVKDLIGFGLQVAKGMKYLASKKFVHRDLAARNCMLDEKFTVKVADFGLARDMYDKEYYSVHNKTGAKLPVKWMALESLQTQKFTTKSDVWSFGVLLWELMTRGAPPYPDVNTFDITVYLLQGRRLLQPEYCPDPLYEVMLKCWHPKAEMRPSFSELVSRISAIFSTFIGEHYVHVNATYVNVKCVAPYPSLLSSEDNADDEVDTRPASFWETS
# Outline: as §1
# RET(V804L) = molecular target: T8, RET(V804L) (Homo sapiens, UniProt P07949, V804L); assay: scanMAX kinase assay panel; type: binding; details: read-out: control percentage (% control)
# T8 construct: purchased DiscoverX scanMAX kinase assay panel
# T8 sequence (P07949 29-1114 V804L): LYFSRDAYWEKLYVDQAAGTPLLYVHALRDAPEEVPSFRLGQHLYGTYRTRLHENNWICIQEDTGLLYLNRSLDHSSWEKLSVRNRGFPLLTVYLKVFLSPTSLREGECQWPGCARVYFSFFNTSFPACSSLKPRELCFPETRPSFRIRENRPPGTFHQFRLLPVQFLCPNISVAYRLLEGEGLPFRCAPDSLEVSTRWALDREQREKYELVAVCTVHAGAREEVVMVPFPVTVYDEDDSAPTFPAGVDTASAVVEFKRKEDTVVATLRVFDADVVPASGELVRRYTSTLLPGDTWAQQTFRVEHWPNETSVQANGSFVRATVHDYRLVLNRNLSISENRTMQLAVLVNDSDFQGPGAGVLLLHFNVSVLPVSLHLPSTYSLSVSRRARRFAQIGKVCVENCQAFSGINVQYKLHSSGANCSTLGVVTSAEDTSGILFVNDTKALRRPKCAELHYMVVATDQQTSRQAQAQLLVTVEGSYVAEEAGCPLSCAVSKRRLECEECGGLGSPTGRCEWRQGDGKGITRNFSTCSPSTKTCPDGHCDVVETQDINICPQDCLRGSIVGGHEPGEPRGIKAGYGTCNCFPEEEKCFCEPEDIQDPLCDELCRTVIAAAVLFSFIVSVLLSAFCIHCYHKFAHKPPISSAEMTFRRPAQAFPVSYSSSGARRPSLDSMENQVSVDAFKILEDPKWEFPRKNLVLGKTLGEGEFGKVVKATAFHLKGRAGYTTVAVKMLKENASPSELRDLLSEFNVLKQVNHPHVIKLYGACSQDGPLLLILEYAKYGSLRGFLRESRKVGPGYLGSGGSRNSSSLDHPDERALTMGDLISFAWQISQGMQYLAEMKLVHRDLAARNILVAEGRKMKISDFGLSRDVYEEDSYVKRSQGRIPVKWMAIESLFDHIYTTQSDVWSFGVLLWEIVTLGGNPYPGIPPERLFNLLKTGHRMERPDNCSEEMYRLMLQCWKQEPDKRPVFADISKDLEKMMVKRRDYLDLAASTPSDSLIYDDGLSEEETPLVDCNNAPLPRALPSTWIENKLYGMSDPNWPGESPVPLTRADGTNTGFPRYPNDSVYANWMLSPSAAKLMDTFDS
# Outline: as §1
smiles,measurement,setting,value
"CN1CCN(c2ccc(Nc3nc(N4OCC[C@H]4c4ccccc4)c4cc[nH]c4n3)cc2)CC1 [Example 74, (S)-N-(4-(4-methylpiperazin-1-yl)phenyl)-4-(3-phenylisoxazolidin-2-yl)-7H-pyrrolo[2,3-d]pyrimidin-2-amine]",IC50,human FLT3-ITD enzyme,> 500 nM
same,remaining binding at 1 µM,CLK1,3.4%
same,remaining binding at 1 µM,CLK2,9.2%
same,remaining binding at 1 µM,DMPK,0.65%
same,remaining binding at 1 µM,FES,32%
same,remaining binding at 1 µM,LRRK2(G2019S),25%
same,remaining binding at 1 µM,MET,4.5%
same,remaining binding at 1 µM,RET(V804L),5.3%
